One assay deals with cellulase. In words: Cellulase activity of RCF pulp samples, Enzchek Cellulase substrate. The format is biochemical. As to the method:
Cellulase activity expressed here as “mU/ml” may be obtained using Enzchek Cellulase substrate (Life Technologies, part of Thermo Fisher Scientific), using the manufacturer's instructions and measurement protocol where sodium acetate buffer is adjusted to pH 6.0 and the samples are diluted 1/10 to minimize inhibition and quenching by fibers.
For example, in soil research microbial cellulolytic potential can be tested with agar plate cultivation, but there are also commercially available substrates for measurement of cellulase activity directly from aqueous samples (cellulase production organism cultivation broths/extracts).
According to the supplier, the assay limit of detection is ~110% of the signal for blank (buffer instead of sample). In addition, standard curve was measured as recommended with Trichoderma mold cellulase (at recommended pH 5.0), but in addition also with Bacillus amyloliquefaciens cellulase (Megazyme; at recommended pH 6.0). Both gave near-linear standard curve with good sensitivity.
(§1) Short-term and long-term effect of biocides on cellulase activity of process samples was tested with laboratory incubations of recycled fiber (RCF) pulp samples at 40° C.

For a further assay, the system named is ATP. In words: ATP measured from pulp bottles. The format is cell-based. As to conditions: after 2 d. As to the method:
(§2) 50 g liner board (from two different mills: 50% from a mill using ~50% unbleached kraft pulp and ~50% recycled fiber and 50% from a mill using 100% recycled fiber) was re-pulped with process water from a third mill using recycled fiber. The final consistency of the pulp was 1.0%. The pulp suspension was divided into 12 bottles and starch suspension (native potato starch) was added into each bottle, so that the concentration of added starch was 1.5 g/l. Six of the bottles (numbers 1-6) were put into an incubator with no other treatment. The other 6 bottles (numbers 7-12) were first pasteurized (1 h, +80° C.) in order to inactivate any enzymes present. After that, the bottles were treated with a biocide (50 mg/l monochloramine, as active chlorine). After this, all 12 bottles were kept at +40° C. with shaking for 4 days. During the incubation, 10 mg/l monochloramine was added daily into the bottles 7-12). At the beginning of the incubation, the pH of the pulp was 6.0, redox −46 mV and conductivity 4.8 mS/cm.
After 2 d, ATP was measured from each bottle and was 1000-fold higher in non-treated than treated bottles (average 71 000 pg/ml, st.dev. 3800, vs. average 70, st.dev. 7 pg/ml, respectively).

Another assay deals with Aerobic bacteria. In words: Culturable aerobic bacterial count in pulp. The format is cell-based. As to the method: as §1
(§3) 50 g liner board was re-pulped with process water from a mill using recycled fiber. The final consistency of the pulp was 1.0% and the liner was from a mill using ~50% unbleached kraft pulp and ~50% recycled fiber. This mill uses about 6 kg/ton wet-end starch in the production of the liner. The pulp suspension was divided into 12 bottles. Six of the bottles were put into an incubator with no other treatment. The other 6 bottles were first pasteurized (1 h, +80° C.) in order to inactivate any enzymes present. After that, the bottles were treated with a combination of a biocide (Mixture of DBNPA, bronopol and CMIT/MIT, 100 mg/l as active substance) and either zinc or zinc comprising compound (25 mg/l as Zn^2+). After this, all 12 bottles were kept at +40° C. with shaking for 3 days. At the beginning of the incubation, the pH of the pulp was 6.64, redox+160 mV and conductivity 5.46 mS/cm.
as §2, with “After this, all 12 bottles were kept at +40° C. with shaking for 4 days. During the incubation, 10 mg/l monochloramine was added daily into the bottles 7-12).” left out

The test system of a further assay is Anaerobic bacteria. The assay can be described thus: Anaerobic bacterial count in pulp. The format is cell-based. Conditions: pasteurized 1 h +80° C., 50 mg/l monochloramine then 10 mg/l daily, 4 d at +40° C., n = 6. As to the method:
as §3
After 3 d pH, ORP, and total and cellulolytic bacterial amounts were measured from each bottle.
50 g liner board (from two different mills: 50% from a mill using ~50% unbleached kraft pulp and ~50% recycled fiber and 50% from a mill using 100% recycled fiber) was re-pulped with process water from a third mill using recycled fiber. The final consistency of the pulp was 1.0%. […]
After 4 d pH, ORP, bacterial amounts and cellulase activity were measured from each bottle.

The mark [1] stands for this setting: RCF pulp, MCA Day 1 50 mg/l, Day 2 and 3 10 mg/l, Days 4-8 no addition.
Setting [2] is: pasteurized 1 h +80° C., 50 mg/l monochloramine then 10 mg/l daily, 4 d at +40° C., n = 6.

Take `NCl` [MCA, monochloramine]: the “cellulase activity in process sample” value in the assay on cellulase (5 d after the last biocide dosage, corresponding to 134% of the blank) was ~ 0.2 mU/ml. The “Cellulase activity at 7 d, % compared to blank” value in the assay on cellulase (setting [1]) is listed as 134%. Besides, the “Cellulase activity, Average” value in the assay with cellulase (setting [2]) came out at 0.44 mU/ml. In addition, the “ATP higher in non-treated than treated bottles” value with ATP is given as 1000 fold. The “ATP, average” value in the assay on ATP (treated bottles, 50 mg/l monochloramine then 10 mg/l daily, +40° C.) was 70 pg/mL. Further, the “reduction of total CFUs” value with Aerobic bacteria (3-day experiment, daily dosages of MCA) is given as 5 orders of magnitude. Moreover, in the assay on Aerobic bacteria (RCF pulp, MCA Day 1 50 mg/l, Day 2 and 3 10 mg/l), the “Aerobic bacteria, 3 d, cfu/ml” value is listed as 6000 cfu/ml. In addition, the “Aerobic bacteria, 6 d, cfu/ml” value in the assay with Aerobic bacteria (setting [1]) is given as 30 000 000 cfu/ml. Also, the “Aerobic bacteria, Average” value in the assay on Aerobic bacteria (setting [2]) is 8 700 cfu, ml. Further, the “Anaerobic bacteria, Average” value with Anaerobic bacteria stood at 970 cfu/ml.

For the origin of these results see patent US12686971B2, “Method of controlling enzymatic activities and tools related thereto” (KEMIRA OYJ, priority 2020, dated 2026).
